We go through 22 compounds from patent US9115133B2, “Substituted fused tricyclic compounds, compositions and medicinal applications thereof” (Advinus Therapeutics Limited, priority 2011, dated 2015).

Common to all, as to assay type: biochemical
Common to all, as to conditions: 200 μg/ml Poly Glu-Tyr (4:1), ATP 1 uM, 90 min room temperature, luminescence

Experiment [1] concerns the target T1, Recombinant JAK3 (Amino acids 781-1124) (Homo sapiens, UniProt P52333).
T1 construct: JAK3 (Amino acids 781-1124; NM_000215.3); made in house; host or cells: baculovirus expression system (Bac-to-Bac)
Description: Kinase-Glo Luminescent Kinase Assay, recombinant JAK3. The procedure, abridged: (§1)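 Baculovirus-expressed kinase domains were pre-incubated 5 min with compound (1% DMSO), then reacted 90 min at room temperature with 200 μg/ml poly Glu-Tyr (4:1) and 1 uM ATP in 50 mM HEPES pH 7.4, 5 mM MgCl2. Remaining ATP was read by Kinase-Glo luminescence. IC50 came from four-parameter logistic fits.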
Background: In Kinase-Glo more light means more ATP remaining.

Experiment [2] concerns the target T2, Recombinant JAK1 (Amino acids 850-1154) (Homo sapiens, UniProt P23458).
T2 construct: Recombinant JAK1 (Amino acids 850-1154; NM_002227.2); made in house; host or cells: baculovirus expression system (Bac-to-Bac)
Description: Kinase-Glo Luminescent Kinase Assay, recombinant JAK1. The procedure, abridged: as §1

In experiment [3] the target is T3, Recombinant JAK2 (Amino acids 808-1132) (Homo sapiens, UniProt O60674).
T3 construct: JAK2 (Amino acids 808-1132; NM_004972.3); made in house; host or cells: baculovirus expression system (Bac-to-Bac)
Description: Kinase-Glo Luminescent Kinase Assay, recombinant JAK2. An excerpt:
Recombinant JAK1 (Amino acids 850-1154; NM_002227.2), JAK2 (Amino acids 808-1132; NM_004972.3) and JAK3 (Amino acids 781-1124; NM_000215.3) used in the studies were expressed using Invitrogen's Bac-to-Bac baculovirus expression system according to manufacturer's instructions. Adenosine 5′-triphosphate was obtained from Sigma Aldrich chemicals (Cat # A7699). Poly Glu-Tyr (4:1) sodium salt was obtained from Sigma Aldrich (Cat # P0275), Kinase Glo® Luminescent Kinase assay kit was obtained from Promega (Cat # V6713) Kinase activity was assessed by Promega Kinase-Glo® Luminescent Kinase Assay kit using 200 μg/ml Poly Glu-Tyr (4:1) as substrate and ATP at 1 uM concentration. The reactions were carried out in 384 well plates in total reaction volume of 20 uL. Reaction mixtures contained 50 mM HEPES pH 7.4, 5 mM MgCl2, 1 mM DTT, 0.01% BSA, 0.01% Tween 20. Kinase was pre-incubated with compounds or 1% DMSO for 5 min before addition of substrate and ATP to check for inhibition. Kinase reactions were carried out at room temperature for 90 min. The reactions were stopped by adding 5 μl of Kinase Glo® reagent & 10 μl of reaction mixture followed by measuring luminescence. The luminescent signal is correlated with the amount of ATP present at the end of kinase reaction and is inversely correlated with the amount of kinase activity. For each data point, % inhibition is calculated based on uninhibited reaction (without compound) which is considered as 100% activity over no enzyme or substrate controls. Dose response data is then fit using a four parameter logistic equation using Graph-pad Prism 5 software to determine inhibition constant 50 (IC50).

T3 sequence (O60674 808-1132): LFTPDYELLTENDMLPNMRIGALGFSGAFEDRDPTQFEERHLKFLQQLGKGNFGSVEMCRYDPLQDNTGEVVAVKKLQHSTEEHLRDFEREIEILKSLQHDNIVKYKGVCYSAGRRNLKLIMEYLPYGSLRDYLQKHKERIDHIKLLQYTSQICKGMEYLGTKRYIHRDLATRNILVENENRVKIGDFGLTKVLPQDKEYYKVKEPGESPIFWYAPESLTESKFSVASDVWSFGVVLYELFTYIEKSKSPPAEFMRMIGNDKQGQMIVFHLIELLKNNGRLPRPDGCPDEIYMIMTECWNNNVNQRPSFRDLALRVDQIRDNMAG
T1 sequence (P52333 781-1124): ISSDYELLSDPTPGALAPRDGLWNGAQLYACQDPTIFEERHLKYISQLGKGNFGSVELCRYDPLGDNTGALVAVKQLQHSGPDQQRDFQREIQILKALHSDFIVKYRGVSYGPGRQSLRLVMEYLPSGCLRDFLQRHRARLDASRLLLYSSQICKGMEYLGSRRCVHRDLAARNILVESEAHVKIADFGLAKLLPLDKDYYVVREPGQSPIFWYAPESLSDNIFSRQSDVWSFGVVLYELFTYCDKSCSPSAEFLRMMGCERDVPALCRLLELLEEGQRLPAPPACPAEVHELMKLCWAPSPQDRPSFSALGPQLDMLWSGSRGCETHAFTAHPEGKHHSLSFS
T2 sequence (P23458 850-1154): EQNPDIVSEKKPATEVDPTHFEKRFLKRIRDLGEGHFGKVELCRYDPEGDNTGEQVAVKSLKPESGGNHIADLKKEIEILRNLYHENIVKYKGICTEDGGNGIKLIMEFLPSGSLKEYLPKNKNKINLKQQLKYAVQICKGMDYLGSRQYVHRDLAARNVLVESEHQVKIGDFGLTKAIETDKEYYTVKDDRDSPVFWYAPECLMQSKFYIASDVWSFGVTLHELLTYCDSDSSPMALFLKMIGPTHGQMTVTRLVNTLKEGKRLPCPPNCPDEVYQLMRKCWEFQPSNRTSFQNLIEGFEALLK

A word on the IC50: it is the concentration needed to halve the response being measured. For the compound `O=C(NC1CC1)C1CCN(c2ccnc3cnc4[nH]ccc4c23)C1` (stereo not drawn) [Ex. 85, N-cyclopropyl-1-(3H-pyrrolo[3,2-f][1,7]naphthyridin-9-yl)pyrrolidine-3-carboxamide], the IC50 in experiment [1], in experiment [2] and in experiment [3] was above 20 nM each time.

Turning to `CC(C)C(=O)N1CCCC(c2ncnc3cnc4[nH]ccc4c23)C1` (stereo not drawn) [Ex. 22, 2-Methyl-1-[3-(3H-3,4,6,8-tetraazacyclopenta[a]naphthalen-9-yl)-piperidin-1-yl]-propan-1-one], the IC50 in experiment [1], in experiment [2] and in experiment [3] was above 20 nM in each case.

Turning to `CCC(=O)N1CCCC(c2ncnc3cnc4[nH]ccc4c23)C1` (stereo not drawn) [Ex. 27, 1-[3-(3H-3,4,6,8-Tetraaza-cyclopenta[a]naphthalen-9-yl)-piperidin-1-yl]-propan-1-one], the IC50 in experiment [1], in experiment [2] and in experiment [3] was above 20 nM throughout.

Turning to `O=C(C1CC1)N1CCCC(c2ncnc3cnc4[nH]ccc4c23)C1` (stereo not drawn) [Ex. 29, Cyclopropyl-[3-(3H-3,4,6,8-tetraaza-cyclopenta[a]naphthalen-9-yl)-piperidin-1-yl]-methanone], the IC50 in experiment [1], in experiment [2] and in experiment [3] was above 20 nM throughout.

Turning to `N#CCC(=O)N1CCC(c2ccnc3cnc4[nH]ccc4c23)C1` (stereo not drawn) [Ex. 14, 3-oxo-3-[3-(3H-pyrrolo[3,2-f][1,7]naphthyridin-9-yl)pyrrolidin-1-yl]propanenitrile], the figures for the IC50 in experiment [1], in experiment [2] and in experiment [3] were above 20 nM, 1 to 20 nM and 1 to 20 nM, respectively.

As for `CC(C)/C(=N\C#N)N1CCCC(c2ccnc3cnc4[nH]ccc4c23)C1` (stereo not drawn) [Ex. 43, (E)-[2-methyl-1-[3-(3H-pyrrolo[3,2-f][1,7]naphthyridin-9-yl)-1-piperidyl]propylidene]cyanamide], the IC50 is 1 to 20 nM in experiment [1], above 20 nM in experiment [2] and 1 to 20 nM in experiment [3].

On to `CC(C)S(=O)(=O)N1CCCC(c2ccnc3cnc4[nH]ccc4c23)C1` (stereo not drawn) [Ex. 11, 9-(1-isopropylsulfonyl-3-piperidyl)-3H-pyrrolo[3,2-][1,7]naphthyridine], for which the IC50 in experiment [1], in experiment [2] and in experiment [3] was above 20 nM each time.

`N#CCS(=O)(=O)N1CCC(c2ccnc3cnc4[nH]ccc4c23)C1` (stereo not drawn) [Ex. 16, 2-[3-(3H-pyrrolo[3,2-f][1,7]naphthyridin-9-yl)pyrrolidin-1-yl]sulfonylacetonitrile]: the values for the IC50 in experiment [1], in experiment [2] and in experiment [3] were above 20 nM, 1 to 20 nM and 1 to 20 nM, respectively.

As for `c1cc(N2CCC(OCC3CC3)CC2)c2c(cnc3[nH]ccc32)n1` [Ex. 60, 9-[4-(cyclopropylmethoxy)-1-piperidyl]-3H-pyrrolo[3,2-f][1,7]naphthyridine], the results for the IC50 in experiment [1], in experiment [2] and in experiment [3] were 1 to 20 nM, above 20 nM and above 20 nM, respectively.

On to `O=C(CC(F)(F)F)N1CCCC(c2ncnc3cnc4[nH]ccc4c23)C1` (stereo not drawn) [Ex. 24, 3,3,3-Trifluoro-1-[3-(3H-3,4,6,8-tetraazacyclopenta[a]naphthalen-9-yl)-piperidin-1-yl]-propan-1-one], for which the 50% inhibitory concentration (IC50) in experiment [1] was above 20 nM; in experiment [2], 1 to 20 nM; in experiment [3], 1 to 20 nM.

As for `O=S(=O)(NC1CCCN(c2ccnc3cnc4[nH]ccc4c23)C1)C(F)(F)F` (stereo not drawn) [Ex. 81, 1,1,1-trifluoro-N-[1-(3H-pyrrolo[3,2-f][1,7]naphthyridin-9-yl)-3-piperidyl]methane sulfonamide], the IC50 in experiment [1], in experiment [2] and in experiment [3] was 1 to 20 nM in each case.

As to `N#CCC(=O)N1CCCC(c2ccnc3cnc4[nH]ccc4c23)C1` (stereo not drawn) [Ex. 1, 3-oxo-3-[3-(3H-pyrrolo[3,2-f][1,7]naphthyridin-9-yl)-1-piperidyl]propanenitrile], the IC50 in experiment [1], in experiment [2] and in experiment [3] was 1 to 20 nM throughout.

Consider `O=C(CC(F)(F)F)NC1CCCN(c2ccnc3cnc4[nH]ccc4c23)C1` (stereo not drawn) [Ex. 87, 3,3,3-trifluoro-N-[1-(3H-pyrrolo[3,2-f][1,7]naphthyridin-9-yl)-3-piperidyl] propanamide], for which the IC50 in experiment [1] is above 20 nM; in experiment [2], above 20 nM; in experiment [3], 1 to 20 nM.

As to `CC(C)(C)C(=O)N1CCCC(c2ncnc3cnc4[nH]ccc4c23)C1` (stereo not drawn) [Ex. 28, 2,2-Dimethyl-1-[3-(3H-3,4,6,8-tetraaza-cyclopenta[a]naphthalen-9-yl)-piperidin-1-yl]-propan-1-one], the IC50 in experiment [1] is above 20 nM; in experiment [2], 1 to 20 nM; in experiment [3], 1 to 20 nM.

Regarding `CN(C)C(=O)N1CCCC(c2ccnc3cnc4[nH]ccc4c23)C1` (stereo not drawn) [Ex. 47, N,N-dimethyl-3-(3H-pyrrolo[3,2-f][1,7]naphthyridin-9-yl)piperidine-1-carboxamide], the IC50 in experiment [1], in experiment [2] and in experiment [3] was 1 to 20 nM each time.

In the case of `O=C(C1CCOC1)N1CCCC(c2ncnc3cnc4[nH]ccc4c23)C1` (stereo not drawn) [Ex. 26, [3-(3H-3,4,6,8-Tetraaza-cyclopenta[a]naphthalen-9-yl)-piperidin-1-yl]-(tetrahydro-furan-3-yl)-mathanone], the IC50 is above 20 nM in experiment [1], 1 to 20 nM in experiment [2] and above 20 nM in experiment [3].

Turning to `O=S(=O)(C1CC1)N1CCCC(c2ncnc3cnc4[nH]ccc4c23)C1` (stereo not drawn) [Ex. 31, 9-(1-Cyclopropanesulfonyl-piperidin-3-yl)-3H-3,4,6,8-tetraaza-cyclopenta[a]naphthalene], the IC50 in experiment [1], in experiment [2] and in experiment [3] was above 20 nM in each case.

With `CNC(=O)N1CCCC(c2ccnc3cnc4[nH]ccc4c23)C1` (stereo not drawn) [Ex. 50, N-methyl-3-(3H-pyrrolo[3,2-f][1,7]naphthyridin-9-yl)piperidine-1-carboxamide], the IC50 in experiment [1], in experiment [2] and in experiment [3] was above 20 nM each time.

Take `O=C(CC(F)(F)F)N1CCC[C@@H](c2ncnc3cnc4[nH]ccc4c23)C1` [Ex. 24A, (R)3,3,3-Trifluoro-1-[3-(3H-3,4,6,8-tetraazacyclopenta[a]naphthalen-9-yl)-piperidin-1-yl]-propan-1-one]: the IC50 in experiment [1], in experiment [2] and in experiment [3] was above 20 nM in each case.

Turning to `N#CCC(=O)N1CCC[C@H](c2ccnc3cnc4[nH]ccc4c23)C1` [Ex. 1A, (R)3-oxo-3-[3-(3H-pyrrolo[3,2-f][1,7]naphthyridin-9-yl)-1-piperidyl]propanenitrile], the IC50 in experiment [1], in experiment [2] and in experiment [3] was above 20 nM each time.

Take `CS(=O)(=O)N1CCC(c2ccnc3cnc4[nH]ccc4c23)C1` (stereo not drawn) [Ex. 20, 9-(1-methylsulfonylpyrrolidin-3-yl)-3H-pyrrolo[3,2-f][1,7]naphthyridine]: the IC50 in experiment [1] is above 20 nM; in experiment [2], 1 to 20 nM; in experiment [3], 1 to 20 nM.

On to `N#C/N=C(\CC(F)(F)F)N1CCCC(c2ccnc3cnc4[nH]ccc4c23)C1` (stereo not drawn) [Ex. 44, (E)-[3,3,3-trifluoro-1-[3-(3H-pyrrolo[3,2-f][1,7]naphthyridin-9-yl)-1-piperidyl]propylidene]cyanamide], for which the IC50 in experiment [1] was above 20 nM; in experiment [2] it was 1 to 20 nM; in experiment [3], 1 to 20 nM.
